Data set [1] can be described thus: Dynamic Vapour Sorption (DVS). In kind it is physicochemical. The procedure: Approximately, 10 mg of sample was placed into a mesh vapor sorption balance pan and loaded into a DVS-1/DVS Intrinsic/DVS Advantage dynamic vapor sorption balance by Surface Measurement Systems. The sample was subjected to a ramping profile from 40-90% relative humidity (RH) at 10% increments, maintaining the sample at each step until a stable weight had been achieved (dm/dt 0.004%, minimum step length 30 min, maximum step length 500 min) at 25° C. After completion of the sorption cycle, the sample was dried using the same procedure to 0% RH and then a second sorption cycle back to 40% RH. Two cycles were performed. The weight change during the sorption/desorption cycles were plotted, allowing for the hygroscopic nature of the sample to be determined.

Data set [2] in a line: Solid form conversion on drying or heating, followed by XRPD. It is filed as physicochemical.
For data set [3] the following is noted: cited from earlier work.
For data set [4] the following is noted: cited from earlier work. The source holds these as a separate data set.
Data set [5] has as its target IP receptor (Homo sapiens, UniProt P43119). The note with it: head-to-head in vitro; cited from earlier work.
Data set [6] relates to pulmonary artery. The following applies: head-to-head in vitro; cited from earlier work.
Data set [7] is described as follows: Solvent solubility study of ralinepag. The note with it: thermodynamic from solid. In kind it is physicochemical. The procedure: To prepare amorphous material for solubility testing, 330 mg of ralinepag was dissolved in 33 mL tert-butanol (with gentle heating applied via a heatgun) before being split evenly into 33 vials (˜10 mg of ralinepag per sample). […] One vial of solid was analyzed by XRPD to confirm that ralinepag had been rendered amorphous. However, as in Example 2g, a poorly crystalline Pattern 2 was observed. 32 solvents and solvent systems were added to 32×10 mg of lyophilized ralinepag in 50 μL aliquots for the first 300 μL or until complete dissolution was noted. If complete dissolution was not observed, 100 μL aliquots were added thereafter up to 1 mL total solvent. Between each addition, the mixture was manually shaken for a few seconds and if complete dissolution was not apparent, the mixture was heated to about 40° C. and checked again. Where complete dissolution occurred, the solvent was allowed to evaporate at ambient temperature. Where complete dissolution was not observed, the solids were isolated via centrifuge filtration. Recovered solids were analyzed by XRPD.

The conditions of data set [8]: healthy volunteer population, cited from earlier work.
The test system of data set [9] is human pulmonary artery smooth muscle cell (PASMC). The note with it: head-to-head in vitro; cited from earlier work.

The source of these data is patent publication US12098116B2, “Crystalline prostacyclin (IP) receptor agonist and uses thereof” (United Therapeutics Corporation, priority 2022, dated 2024).

The structures appear in SMILES notation. In brackets after ≈: the same amount, converted by molar mass. Read-outs that look alike come from different tables or passages of the source.

Sequence of IP receptor (P43119 whole entry): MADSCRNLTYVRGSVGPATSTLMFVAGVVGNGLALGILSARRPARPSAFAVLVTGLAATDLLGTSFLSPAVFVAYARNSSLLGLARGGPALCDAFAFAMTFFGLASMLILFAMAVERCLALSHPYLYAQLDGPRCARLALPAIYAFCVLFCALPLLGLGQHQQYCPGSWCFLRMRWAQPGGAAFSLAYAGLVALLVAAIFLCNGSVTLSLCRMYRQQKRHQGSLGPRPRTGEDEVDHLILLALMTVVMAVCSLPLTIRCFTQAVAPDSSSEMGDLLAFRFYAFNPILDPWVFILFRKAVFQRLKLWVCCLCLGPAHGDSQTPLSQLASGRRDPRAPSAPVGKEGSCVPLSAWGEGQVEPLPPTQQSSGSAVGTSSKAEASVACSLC

Consider `O=C(O)COC[C@H]1CC[C@H](COC(=O)N(c2ccccc2)c2ccc(Cl)cc2)CC1` [Form 1], for which the Hygroscopic nature entry in data set [1] (DVS, 25° C.) is reported as “non-hygroscopic”. Besides, the “XRPD of the solid after DVS analysis” value in [1] (after DVS between 0% and 90% RH) was “unchanged”. Moreover, the Reversible water uptake in data set [1] (between 0% and 90% RH, 25° C.) is recorded as 0.1 % (w/w).

On to `O=C(O)COC[C@H]1CC[C@H](COC(=O)N(c2ccccc2)c2ccc(Cl)cc2)CC1` [Pattern 2], for which, in [2] (dried under vacuum at 40° C. for approximately 21 h), the “Solid form after drying (XRPD)” value is on record as “retained”. The “Solid form conversion on heating” value in data set [2] (on heating) is listed as “converts to Form 1”.

On to `O=C(O)COC[C@H]1CC[C@H](COC(=O)N(c2ccccc2)c2ccc(Cl)cc2)CC1` [Pattern 4], for which the “Solid form conversion upon drying” value in data set [2] (made from DMA/water) was “converts to a predominantly amorphous form with some Form 1 peaks present”; in data set [2] (made from NMP/water, upon drying (even with air drying)), “converts to Form 1”.

Turning to `CC(C)N(CCCCOCC(=O)NS(C)(=O)=O)c1cnc(-c2ccccc2)c(-c2ccccc2)n1` [Selexipag], the “Effect on PVR” value in data set [3] (after 17 weeks of treatment) is listed as “reduce PVR”. Moreover, the “Reduction in a composite morbidity and mortality endpoint” value in data set [3] (in vivo) is recorded as 40%.

`CCCCC[C@H](O)/C=C/[C@@H]1[C@H]2C/C(=C/CCCC(=O)O)O[C@H]2C[C@H]1O` [epoprostenol]: the “Stability at room temperature” value in data set [4] is “unstable at room temperature”.

In the case of `O=C(O)COC[C@H]1CC[C@H](COC(=O)N(c2ccccc2)c2ccc(Cl)cc2)CC1` [ralinepag, 2-([(1r,4r)-4-(((4-chlorophenyl)(phenyl)carbamoyloxy)methyl)-cyclohexyl]methoxy)acetic acid], the “Increase of cellular cAMP levels compared with selexipag” value in data set [5] is “more potent and efficacious than selexipag”. Further, the “Pulmonary artery vasodilation compared with selexipag” value in [6] was “improved”. The solubility – broadly, the dissolved amount per volume that the medium holds – in data set [7] (aqueous with cosolvent or surfactant or cyclodextrin, solvent ethanol/water (48:52% v/v), read-out: Estimated Solubility) was less than 10 mg/mL; in data set [7] (organic solvent or mixture, in 29 of the 32 solvent systems, poorly crystalline ralinepag, read-out: Solubility, summary of the screen) it was no less than 10 mg/mL; in data set [7] (organic solvent or mixture, solvent 1,1-dimethoxymethane, heated to 40° C., lyophilized poorly crystalline material, read-out: Estimated Solubility), 50 mg/mL (≈ 116 mM); in data set [7] (organic solvent or mixture, solvent 1,2-dichloroethene, heated to 40° C., read-out: Estimated Solubility), 200 mg/mL (≈ 463 mM); in [7] (organic solvent or mixture, solvent 1,4-dioxane, heated to 40° C., read-out: Estimated Solubility), 200 mg/mL (≈ 463 mM); in data set [7] (organic solvent or mixture, solvent 1-butanol, heated to 40° C., read-out: Estimated Solubility), 50 mg/mL (≈ 116 mM). Also, the solubility in data set [7] (organic solvent or mixture, solvent 1-propanol, heated to 40° C., read-out: Estimated Solubility) is 50 mg/mL (≈ 116 mM); in [7] (organic solvent or mixture, solvent 2-ethoxyethanol, heated to 40° C., read-out: Estimated Solubility) it was 200 mg/mL (≈ 463 mM); in data set [7] (organic solvent or mixture, solvent 2-methyl-1-propanol, heated to 40° C., read-out: Estimated Solubility), 50 mg/mL (≈ 116 mM); in data set [7] (organic solvent or mixture, solvent 2-methyltetrahydrofuran, read-out: Estimated Solubility), 200 mg/mL (≈ 463 mM); in data set [7] (organic solvent or mixture, solvent 2-propanol, heated to 40° C., read-out: Estimated Solubility) it was 50 mg/mL (≈ 116 mM); in data set [7] (organic solvent or mixture, solvent N,N-dimethylacetamide, read-out: Estimated Solubility), 200 mg/mL (≈ 463 mM). The solubility is 200 mg/mL (≈ 463 mM) in data set [7] (organic solvent or mixture, solvent N,N-dimethylformamide, read-out: Estimated Solubility); 200 mg/mL (≈ 463 mM) in data set [7] (organic solvent or mixture, solvent N-methyl-2-pyrrolidone, read-out: Estimated Solubility); 200 mg/mL (≈ 463 mM) in data set [7] (organic solvent or mixture, solvent acetone, read-out: Estimated Solubility); 40 mg/mL (≈ 92.6 mM) in data set [7] (organic solvent or mixture, solvent acetonitrile, heated to 40° C., read-out: Estimated Solubility); 200 mg/mL (≈ 463 mM) in data set [7] (organic solvent or mixture, solvent anisole, read-out: Estimated Solubility); 200 mg/mL (≈ 463 mM) in data set [7] (organic solvent or mixture, solvent benzyl alcohol, read-out: Estimated Solubility). In addition, the solubility in data set [7] (organic solvent or mixture, solvent butyl acetate, heated to 40° C., read-out: Estimated Solubility) was 50 mg/mL (≈ 116 mM); in data set [7] (organic solvent or mixture, solvent dimethylsulfoxide, heated to 40° C., read-out: Estimated Solubility), 200 mg/mL (≈ 463 mM); in data set [7] (organic solvent or mixture, solvent ethanol/water (93:7% v/v), heated to 40° C., read-out: Estimated Solubility) it was 100 mg/mL (≈ 232 mM); in [7] (organic solvent or mixture, solvent ethanol/water (98.5:1.5% v/v), read-out: Estimated Solubility) it was 100 mg/mL (≈ 232 mM); in [7] (organic solvent or mixture, solvent ethanol, heated to 40° C., read-out: Estimated Solubility), 100 mg/mL (≈ 232 mM); in data set [7] (organic solvent or mixture, solvent ethyl acetate, heated to 40° C., read-out: Estimated Solubility), 100 mg/mL (≈ 232 mM). Also, the solubility in data set [7] (organic solvent or mixture, solvent heptane, read-out: Estimated Solubility) was less than 10 mg/mL; in data set [7] (organic solvent or mixture, solvent isopropyl acetate, heated to 40° C., read-out: Estimated Solubility) it was 66.7 mg/mL (≈ 154 mM); in data set [7] (organic solvent or mixture, solvent methanol, heated to 40° C., read-out: Estimated Solubility), 200 mg/mL (≈ 463 mM); in data set [7] (organic solvent or mixture, solvent methylethyl ketone, heated to 40° C., read-out: Estimated Solubility) it was 200 mg/mL (≈ 463 mM); in data set [7] (organic solvent or mixture, solvent methylisobutyl ketone, heated to 40° C., read-out: Estimated Solubility), 100 mg/mL (≈ 232 mM); in [7] (organic solvent or mixture, solvent tert-butylmethyl ether, heated to 40° C., read-out: Estimated Solubility) it was 25 mg/mL (≈ 57.9 mM). Moreover, the solubility in data set [7] (organic solvent or mixture, solvent tetrahydrofuran, heated to 40° C., read-out: Estimated Solubility) is 200 mg/mL (≈ 463 mM); in data set [7] (organic solvent or mixture, solvent toluene, heated to 40° C., read-out: Estimated Solubility), 14.3 mg/mL (≈ 33.1 mM); in data set [7] (solvent water, read-out: Estimated Solubility) it was less than 10 mg/mL. In addition, the “Variability in plasma concentrations between doses (peak:trough ratio)” value in data set [8] (compared with selexipag) is reported as “less variability”. In addition, the “t1/2 compared with selexipag (and its active metabolite MRE-269)” value in data set [8] (single- and multiple-dose studies) was “longer t1/2 than selexipag”. Further, in data set [9], the “Inhibition of human PASMC proliferation compared with selexipag” value is given as “better inhibition”.
